Experimental findings from ChEMBL document CHEMBL2074371, “The dietary polyphenol ellagic acid is a potent inhibitor of hOAT1” (Drug Metab Dispos, 2005) are described below.

The target of data set [1] is T1, Solute carrier family 22 member 11 (Homo sapiens, UniProt Q9NSA0).
T1 sequence (Q9NSA0 whole entry): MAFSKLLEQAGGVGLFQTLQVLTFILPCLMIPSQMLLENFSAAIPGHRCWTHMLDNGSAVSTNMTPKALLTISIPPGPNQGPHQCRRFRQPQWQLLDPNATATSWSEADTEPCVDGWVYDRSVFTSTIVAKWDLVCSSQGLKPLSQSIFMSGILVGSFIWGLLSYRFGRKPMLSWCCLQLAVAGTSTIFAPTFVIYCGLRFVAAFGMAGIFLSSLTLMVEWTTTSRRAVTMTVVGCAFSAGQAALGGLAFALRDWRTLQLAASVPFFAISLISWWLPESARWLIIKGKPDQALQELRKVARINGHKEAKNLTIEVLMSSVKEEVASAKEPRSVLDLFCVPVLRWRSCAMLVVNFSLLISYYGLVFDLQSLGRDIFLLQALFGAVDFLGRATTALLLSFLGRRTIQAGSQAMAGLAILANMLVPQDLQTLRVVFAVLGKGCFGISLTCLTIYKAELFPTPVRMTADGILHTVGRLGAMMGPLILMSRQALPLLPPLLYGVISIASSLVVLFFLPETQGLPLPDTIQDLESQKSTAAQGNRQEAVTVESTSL
As to the kind of experiment: TP_TRANSPORTER: inhibition of p-aminohippurate uptake (p-aminohippurate / 10uM) by ellagic acid at a concentration of 35uM in Xenopus laevis oocytes. The format is functional, cell-based. Further details: scale not given: the % may be the effect or the level left. Conditions: oocyte.

The target in data set [2] is T1, Solute carrier family 22 member 11. Kind of data set: (§1) TP_TRANSPORTER: uptake in Xenopus laevis oocytes. It counts as functional, cell-based. Conditions: oocyte.
Data set [3] concerns the target T2, Solute carrier family 22 member 6 (Homo sapiens, UniProt Q4U2R8).
T2 sequence (Q4U2R8 whole entry): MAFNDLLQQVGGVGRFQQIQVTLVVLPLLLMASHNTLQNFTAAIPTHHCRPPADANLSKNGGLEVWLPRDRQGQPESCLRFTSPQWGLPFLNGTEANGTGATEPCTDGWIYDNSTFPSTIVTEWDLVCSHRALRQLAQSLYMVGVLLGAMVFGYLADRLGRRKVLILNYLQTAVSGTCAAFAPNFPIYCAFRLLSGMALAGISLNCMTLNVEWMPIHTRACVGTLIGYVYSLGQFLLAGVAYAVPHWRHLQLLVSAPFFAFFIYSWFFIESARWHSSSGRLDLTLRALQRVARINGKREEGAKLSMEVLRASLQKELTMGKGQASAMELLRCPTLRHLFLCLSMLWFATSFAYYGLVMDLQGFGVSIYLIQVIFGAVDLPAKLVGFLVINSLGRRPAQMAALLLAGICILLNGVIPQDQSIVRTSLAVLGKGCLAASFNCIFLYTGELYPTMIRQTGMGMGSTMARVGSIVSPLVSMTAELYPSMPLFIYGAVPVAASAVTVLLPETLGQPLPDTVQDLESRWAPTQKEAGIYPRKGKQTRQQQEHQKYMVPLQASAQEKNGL
The data set is described as §1. It counts as functional, cell-based. Conditions: oocyte.

Data set [4] deals with T2, Solute carrier family 22 member 6. Kind of data set: TP_TRANSPORTER: inhibition of ochratoxin A uptake (ochratoxin A / 1uM) in Xenopus laevis oocytes. The format is functional, cell-based, Oocyte.

For orientation: IC50 means the concentration needed to halve the response being measured. Consider `O=c1oc2c(O)c(O)cc3c(=O)oc4c(O)c(O)cc1c4c23` [ELLAGIC ACID], for which the Activity in data set [1] was 35%; in data set [2] it was “substrate [+]”; in data set [3] it was “substrate [+]”. For the same molecule, the IC50 in data set [4] came out at 270 nM.
